On series [1], the source says: (§1) Current antimicrobials have a short life with no residual effect. They lose there effectiveness in high protein environment. Certain bacteria developed resistance. They are toxic or cause irritations. Some are highly corrosive.
The next series concerns spores. The series can be described thus: Sporicidal effectiveness, comparison table. Type of series: cell-based. The conditions noted are these: Table 1.
Excerpt: as §1

A short description of series [2]: Minimum inhibitory concentration (MIC), comparison of biocidal nanocomposites and existing decontaminants. In kind it is cell-based. The following applies: Table 1.
Excerpt: as §1

Another series deals with G+ & G−. Nature of the series: Bactericidal effectiveness, comparison table. In kind it is cell-based. The conditions noted are these: Table 1.
Excerpt: as §1

The next series has as its system fungi. The series can be described thus: Fungicidal effectiveness, comparison table. The conditions noted are these: Table 1. In kind it is cell-based.
Excerpt: as §1

This note sets out measurements from patent US20080063679A1, “NANOCOMPOSITES WITH RESIDUAL BIOCIDAL AND BIOSTATIC PROPERTIES” (Quartek Corporation, priority 2006, published 2008).

Converted amounts (≈) assume the structure as drawn.

For the molecule `OCl` [Hypochlorite], the Non-corrosive result in series [1] is reported as “no”. Moreover, in series [1] (Table 1), the Contact time is 1 to 30 min, the “Effective in hard water” value is given as “poor”, the Effective in organics entry is recorded as “poor” and the Effective in soap result is on record as “yes”. For the same molecule, the Residual activity result in series [1] (Table 1) was “poor”. In addition, the “Effectiveness Sporicidal” value with spores is “no/fair”. Further, in series [2], the “Minimum inhibitory concentration (MIC)” value was 150 µg/mL (≈ 2860 µM). For the same molecule, the “Effectiveness Bactericidal (G+ & G−)” value in the series with G+ & G− was “very good”. For the same molecule, the “Effectiveness Fungicidal” value in the series with fungi is reported as “good”.
